Data from US20250188088A1, “COMPOUND AND USE THEREOF” (ONQUALITY PHARMACEUTICALS CHINA LTD., priority 2022, published 2025).
In brackets after ≈: the same amount, converted by molar mass. Where two headings read alike, the source gives them in different places.

Columns and labels:
[1] = Thermodynamic solubility assay (PBS pH 6.5; isopropyl myristate); assay type: physicochemical; conditions: thermodynamic from solid
Method: Thermodynamic Solubility Assay
Weigh not less than 2 mg of the sample powder into a Whatman Mini-UniPrep vial. If it is required to test the thermodynamic solubility of samples in multiple buffers, a separate vial is needed for each test; add 450 μL of buffer to each Whatman Mini-UniPrep vial, respectively; after that, install the piston cap of Whatman Mini-UniPrep and press it above the liquid level, so that the filter is in contact with the buffer during shaking; shake the solubility sample by vortexing for 1 minute.
Inject 3 UV standard solutions from low to high concentrations into the HPLC, then inject the diluent and supernatant of the test compound, with two replicates of test sample; and integrate the UV peaks. Simulate a standard curve and calculate the thermodynamic solubility of the sample.

[2] = Log D measurement (n-octanol/PBS shake, LC-MS/MS); assay type: physicochemical; conditions: pH 7.4, read-out: LogD7.4 (Oct/buff)
Method: Two replicates of test compounds (DMSO stock solution 10 mM, 2 μL/well) and QCs (DMSO 10 mM, 2 μL/well) were transferred from the storage tube to a 96-well cluster tube. Add buffer-saturated n-octanol ([…]) and n-octanol-saturated PBS (149 μL/well) to each well; vortex mix the cluster tube for 1 minute, mix by shaking on a plate shaker at 880 rpm for one hour, and then centrifuge at 4000 rpm for 10 minutes. Remove the cover pad, accurately measure a certain amount of n-octanol layer samples (4 μL/well) into a 96-well plate containing n-octanol internal standard diluent (796 μL/well); accurately measure a certain amount of buffer salt layer samples (30 μL/well) into a 96-well plate containing buffer internal standard diluent (570 μL/well); the dilution factor of the sample can be adjusted according to different properties of the sample. Samples were analyzed using a triple quadrupole mass spectrometer. The processed sample solution was analyzed by the fast isocratic elution and small column retention method, the concentration correction was carried out by dilution factor and internal standard, and the ratio of the corrected peak area was used to calculate the final result (Log D/Log P value).

[3] = system: rash caused by small molecule EGFR inhibitors; test: Treatment of rash caused by small molecule EGFR inhibitors, topical ointment, rat model; assay type: in vivo, SD rats
Method: An Experiment to Verify the Treatment of Rash Caused by Small Molecule EGFR Inhibitors with Topical Administration of Compounds of the Present Application on a Rat Animal Model After the SD rats were fed and adapted for one week (about 200 g), the rats were divided into 10 rats per group. The hair on the back of rats was gently removed with an electric razor one day before the experiment, and then an intragastric administration test was carried out. EGFR inhibitors were dissolved in a sterile aqueous solution, and diluted with PBS buffer; the amount of each gavage was not more than 2 mL, and the dosage was shown in Table 3. […] The experiments were divided into the administration group with the compound of the present application and the control group. During the treatment experiment, EGFR inhibitors were intragastrically administered continuously every day. After the gavage, the administration group applied the compound ointment of the present application on the back (about 3 cm*3 cm) of rats, and the control group applied blank matrix ointment on the back (about 3 cm*3 cm); after application, the rats were fixed with a fixed cyclinder for about 4 hours, and then the rats were released, with the residual drug at the application site wiped off with clean water, and put back into the cage. The frequency of intragastric administration of EGFR inhibitors is shown in Table 3, but the compounds of the present application and blank ointment are applied only once a day. […] Table 3 lists the animal experiment combinations of various small molecule EGFR inhibitors and the compound ointment of the present application, as well as the corresponding experiment results (wherein, the value in the control rate column=the number of rats whose rash is milder in the administration group than that in the control group/the total number of rats in the administration group×100%).

[4] = system: rash caused by small molecule EGFR inhibitors; test: Prevention of rash caused by small molecule EGFR inhibitors, topical ointment, rat model; assay type: in vivo, SD rats
Method in brief: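 Female SD rats (~200 g, dorsal hair shaved, 10/group) dosed daily by gavage with small-molecule EGFR inhibitors; compound ointment or blank matrix applied once daily to ~3 cm×3 cm of back, left 4 h, then wiped off. Repeated until obvious rash in controls; control rate = % of treated rats with milder rash than controls.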

## C[C@@H]1CCN(C(=O)CC#N)C[C@@H]1N(C)c1ncnc2c1ccn2C(=O)N(C)CCOC(=O)C1CCCO1 (stereo partly drawn) [Compound A7]
[1]; aqueous buffer, PBS buffer pH 6.5, about 25° C., read-out: Thermodynamic Solubility pH = 6.5
  solubility thermodynamic at 24 h: 4390 µg/mL (≈ 8.58 mM)
[1]; oil or lipid, isopropyl myristate as vehicle, about 25° C., read-out: Thermodynamic Solubility in Isopropyl Myristate
  solubility thermodynamic at 24 h: 375 µg/mL (≈ 0.733 mM)
[2]
  logD: 0.63
[3]; Afatinib 40 mg/kg once a day, 6 dosing modelling days, ointment 0.1 wt% once a day
  Control Rate: 20%
[3]; Afatinib 40 mg/kg once a day, 6 dosing modelling days, ointment 3.0 wt% once a day
  Control Rate: 60%
[3]; BPI-7711 60 mg/kg once a day, 6 dosing modelling days, ointment 3.0 wt% once a day
  Control Rate: 70%
[3]; EAI045 80 mg/kg once a day, 8 dosing modelling days, ointment 1.0 wt% once a day
  Control Rate: 50%
[3]; EAI045 80 mg/kg once a day, 8 dosing modelling days, ointment 5.0 wt% once a day
  Control Rate: 80%
[3]; Larotinib 20 mg/kg once a day, 6 dosing modelling days, ointment 3.0 wt% once a day
  Control Rate: 6%
[3]; Osimertinib 60 mg/kg twice a day, 7 dosing modelling days, ointment 3.0 wt% once a day
  Control Rate: 10%
[3]; Osimertinib 60 mg/kg twice a day, 7 dosing modelling days, ointment 10.0 wt% once a day
  Control Rate: 70%
[4]; Afatinib 40 mg/kg once a day, ointment 0.1 wt% once a day, 14 days
  Control Rate: 20%
[4]; Afatinib 40 mg/kg once a day, ointment 0.3 wt% once a day, 14 days
  Control Rate: 50%
[4]; Afatinib 40 mg/kg once a day, ointment 1.0 wt% once a day, 14 days
  Control Rate: 70%
[4]; Afatinib 40 mg/kg once a day, ointment 3.0 wt% once a day, 14 days
  Control Rate: 75%
[4]; Afatinib 40 mg/kg once a day, ointment 5.0 wt% once a day, 14 days
  Control Rate: 80%
[4]; Afatinib 40 mg/kg once a day, ointment 10.0 wt% once a day, 14 days
  Control Rate: 60%
[4]; Dacomitinib 10 mg/kg once a day, ointment 1.0 wt% once a day, 12 days
  Control Rate: 40%
[4]; Dacomitinib 10 mg/kg once a day, ointment 5.0 wt% once a day, 12 days
  Control Rate: 80%
[4]; EAI045 80 mg/kg once a day, ointment 1.0 wt% once a day, 11 days
  Control Rate: 30%
[4]; EAI045 80 mg/kg once a day, ointment 10.0 wt% once a day, 11 days
  Control Rate: 60%
[4]; Gefitinib 80 mg/kg twice a day, ointment 0.3 wt% once a day, 15 days
  Control Rate: 10%
[4]; Gefitinib 80 mg/kg twice a day, ointment 1.0 wt% once a day, 15 days
  Control Rate: 50%
[4]; Gefitinib 80 mg/kg twice a day, ointment 3.0 wt% once a day, 15 days
  Control Rate: 60%
[4]; Gefitinib 80 mg/kg twice a day, ointment 5.0 wt% once a day, 15 days
  Control Rate: 60%
[4]; Osimertinib 60 mg/kg twice a day, ointment 0.3 wt% once a day, 10 days
  Control Rate: 20%
[4]; Osimertinib 60 mg/kg twice a day, ointment 5.0 wt% once a day, 10 days
  Control Rate: 70%
